Measurements taken from publication PMC314469, “Protein Interaction Networks by Proteome Peptide Scanning” (PLoS Biology, 2004).

System: Myo5 SH3 domain
Assay: SPOT analysis of cellulose-bound peptides (WISE), Myo5 SH3 domain (Dataset S4)
Format: binding, Saccharomyces cerevisiae
Details: for The normalized value in BLU units: Myo5 SH3 domain
[1] = SPOT analysis of cellulose-bound 14-mer yeast proteome peptides, normalized value, mean where the peptide was synthesized more than once
[2] = SPOT analysis of cellulose-bound peptides probed with Myo5 SH3 domain, normalized value
[3] = SPOT analysis of membrane-synthesized peptides probed with Myo5 SH3 domain, normalized value
[4] = SPOT analysis of membrane-bound peptides, normalized value (see methods)

QFSGLLEPSLPNNM
The normalized value in BLU units [1]: 84.4 BLU

QFSPMDDPKSPTPM
The normalized value in BLU units (SPOT analysis, Myo5 SH3) [2]: 121.0 BLU

QGSNKYSPSSPLTT
The normalized value in BLU units (SPOT analysis, Myo5 SH3) [3]: 171.4 BLU

QHKPKVKPSKPEAK
The normalized value in BLU units (SPOT analysis, Myo5 SH3) [3]: 956.3 BLU

QIVNKPLPPLPVAG
The normalized value in BLU units (SPOT analysis, Myo5 SH3) [3]: 248.9 BLU

QLIGFGNPKNPFAL
The normalized value in BLU units (SPOT analysis, Myo5 SH3) [2]: 46.1 BLU

QLINRFMPHFPSSP
The normalized value in BLU units (SPOT analysis, Myo5 SH3) [3]: 518.2 BLU

QLQEKLSPDLPDEE
The normalized value in BLU units [4]: 216.1 BLU

QLRSLFKPFGPILN
The normalized value in BLU units [1]: 369.9 BLU

QLVTLISPYDPNFK
The normalized value in BLU units [1]: 177.5 BLU

QNGLRFNPDVPKLW
The normalized value in BLU units (SPOT analysis, Myo5 SH3) [3]: 260.1 BLU

QPAQFMPPQDPAAA
The normalized value in BLU units [1]: 133.5 BLU

QPAQLQEPQEPLST
The normalized value in BLU units (SPOT analysis, Myo5 SH3) [2]: 125.9 BLU

QPPDRNLPSHPSSN
The normalized value in BLU units (SPOT analysis, Myo5 SH3) [3]: 155.8 BLU

QPQAYHLPGNPYST
The normalized value in BLU units (SPOT analysis, Myo5 SH3) [2]: 187.4 BLU

QPQHLPPPPPPRAQ
The normalized value in BLU units [1]: 76158.3 BLU

QPTNFQYPPPPFGQ
The normalized value in BLU units (SPOT analysis, Myo5 SH3) [2]: 224.1 BLU

QRLDRDKPHEPNGY
The normalized value in BLU units (SPOT analysis, Myo5 SH3) [3]: 217.9 BLU

QSEEKEKPKGPMAV
The normalized value in BLU units [4]: 197.3 BLU

QSINRSIPSAPYGA
The normalized value in BLU units [4]: 208.2 BLU

QSKTKPLPVEPASP
The normalized value in BLU units [4]: 122.1 BLU

QTGSKTVPQAPQAP
The normalized value in BLU units (SPOT analysis, Myo5 SH3) [3]: 62.9 BLU

QTVIKTHPRIPKSE
The normalized value in BLU units (SPOT analysis, Myo5 SH3) [3]: 186.2 BLU

QVYEKTIPLFPPEI
The normalized value in BLU units (SPOT analysis, Myo5 SH3) [3]: 153.0 BLU

QWSKRIMPYIPGPV
The normalized value in BLU units (SPOT analysis, Myo5 SH3) [3]: 295.5 BLU

RAAGMDVPIIPGIM
The normalized value in BLU units [1]: 98.2 BLU

RAGNREPPSTPSTL
The normalized value in BLU units [4]: 273.8 BLU

RDDVKRTPFIPESV
The normalized value in BLU units [4]: 171.1 BLU

REASLDIPYKPIIA
The normalized value in BLU units [1]: 176.1 BLU

REDAHEDPVSPKAG
The normalized value in BLU units [1]: 144.8 BLU

REFEFIIPVFPVIC
The normalized value in BLU units (SPOT analysis, Myo5 SH3) [2]: 163.2 BLU

REGPKSCPRGPLCP
The normalized value in BLU units [4]: 188.5 BLU

RERPLEPPRKPMAS
The normalized value in BLU units [1]: 967.3 BLU

REVDLPIPAQPGPP
The normalized value in BLU units (SPOT analysis, Myo5 SH3) [2]: 114.0 BLU

REYIKSLPMYPAAP
The normalized value in BLU units (SPOT analysis, Myo5 SH3) [3]: 70.4 BLU

RFHVFCEPILPSVA
The normalized value in BLU units [1]: 158.0 BLU

RFSSRRAPIAPSGK
The normalized value in BLU units [1]: 564.4 BLU

RFWTRARPIDPNAY
The normalized value in BLU units (SPOT analysis, Myo5 SH3) [3]: 279.1 BLU

RGWQRFLPTGPIAH
The normalized value in BLU units (SPOT analysis, Myo5 SH3) [3]: 802.1 BLU

RHSKKPAPPPPGMQ
The normalized value in BLU units (SPOT analysis, Myo5 SH3) [3]: 1938.6 BLU

RIRDKSKPSSPTAT
The normalized value in BLU units (SPOT analysis, Myo5 SH3) [3]: 546.8 BLU

RKSDKNAPSVPQVD
The normalized value in BLU units [4]: 394.6 BLU

RLFDLVKPKNPKFS
The normalized value in BLU units [1]: 441.1 BLU

RLIKRLKPPAPKEP
The normalized value in BLU units (SPOT analysis, Myo5 SH3) [3]: 403.1 BLU

RLLALFIPALPFII
The normalized value in BLU units [1]: 264.8 BLU

RLLFRSLPPHPACL
The normalized value in BLU units [4]: 745.7 BLU

RLLSKYRPSCPIIL
The normalized value in BLU units (SPOT analysis, Myo5 SH3) [3]: 336.6 BLU

RLNSFAPPPNPYAT
The normalized value in BLU units [1]: 273.6 BLU

RLPSKTDPLDPHIK
The normalized value in BLU units [4]: 129.4 BLU

RLQKLDDPKSPYQC
The normalized value in BLU units [1]: 127.2 BLU

RLSLLRSPKAPDAH
The normalized value in BLU units [1]: 442.3 BLU

RLTNFEVPSLPTFH
The normalized value in BLU units (SPOT analysis, Myo5 SH3) [2]: 319.1 BLU

RLVNKLLPPHPFAD
The normalized value in BLU units (SPOT analysis, Myo5 SH3) [3]: 289.2 BLU

RLVSKYRPNCPIIL
The normalized value in BLU units [4]: 286.2 BLU

RLWLYAAPKRPKTF
The normalized value in BLU units (SPOT analysis, Myo5 SH3) [2]: 845.1 BLU

RMQQKNSPAFPTHS
The normalized value in BLU units [4]: 1283.9 BLU

RPKRRAPPPVPKKP
The normalized value in BLU units (SPOT analysis, Myo5 SH3) [3]: 67429.7 BLU

RPPSHSAPYIPRSS
The normalized value in BLU units [1]: 47448.0 BLU

RPQWLSYPEQPLNS
The normalized value in BLU units (SPOT analysis, Myo5 SH3) [2]: 241.0 BLU

RPSKFFHPPIPHIP
The normalized value in BLU units (SPOT analysis, Myo5 SH3) [2]: 776.9 BLU

RPVYRLKPNAPFQY
The normalized value in BLU units (SPOT analysis, Myo5 SH3) [3]: 209.8 BLU

RRHNRQHPPYPHSG
The normalized value in BLU units [4]: 1287.6 BLU

RRIRKEHPGEPNVI
The normalized value in BLU units [4]: 308.3 BLU

RRKLRTVPGVPLIH
The normalized value in BLU units (SPOT analysis, Myo5 SH3) [3]: 2011.1 BLU

RRLKKNLPSLPTPV
The normalized value in BLU units [1]: 823.8 BLU

RRRTRLRPPTPLSQ
The normalized value in BLU units [4]: 1508.6 BLU

RSRSKKDPGIPSNF
The normalized value in BLU units (SPOT analysis, Myo5 SH3) [3]: 800.0 BLU

RTFFKLPPNLPEAE
The normalized value in BLU units [4]: 2608.2 BLU

RTPSKPDPMEPENT
The normalized value in BLU units [4]: 186.9 BLU

RYCFKLLPPQPGSK
The normalized value in BLU units [4]: 189.7 BLU

RYPFRMIPELPPKR
The normalized value in BLU units (SPOT analysis, Myo5 SH3) [3]: 3574.9 BLU
